Test results taken from US11446299B2, “Carbazole EHop-016 derivatives as anticancer and anti-migratory agents” (UNIVERSITY OF PUERTO RICO, priority 2017, dated 2022).

Key:
MDA-MB-231 cancer cells = assay: Sulforhodamine B (SRB) growth inhibition assay; assay type: cell-based, human
Description: Various compounds were tested to evaluate the dose response curve for effect on MCF-7 cancer cells and MDA-MB-231 cancer cells. MCF-7 and MDA-MB-231 cells were cultured in 10% Minimum Essential Medium Eagle (MEME) supplemented with Earle's Balanced Salt Solution (EBSS), Non-essential Amino acids (NEAA), Sodium pyruvate, Pen/Strep, L-glutamine and Fetal Bovine Serum (FBS) at 37° C. in 5% CO2.
Sulforhodamine B (SRB) Assay: A stock solution of compounds was prepared at 50 mM in 100% DMSO. For cells preparation, a flask of 75 cm^2 or 25 cm^2 were used for 2.6×10^5 cells or 1.44×10^5 cells respectively with an 80-90% of confluence. Cells were washed with PBS and trypsinized. The concentration of cells was determined using a 1:2 dilutions with Trypan Blue and a hemocytometer. After cell count, the concentration was adjusted to have a 1.9×10^4 cells/well. Approximately […] of cells suspension, compounds, control positive and control negative were added in triplicates to a 96 well plate. Positive controls used were ellipticine, doxorubicin, and/or vincristine, and the negative control was DMSO 0.1%. All compounds at 50, 25, 12.5, 6.3, and 1.6 μM were incubated with cells at 37° C. for 24 hrs. For fixation, cold TCA 50% was used and incubated at 4° C. for 1 hr. Wells were washed and dried prior to tincture with 100 μL of SRB 0.4%. To remove excess of SRB, acetic acid was used. For analysis, TRIS-BASE Solution (pH=10.5) was used and shacked prior to reading using an ELISA reader at 510 nm and the software SoftMax Pro 4.8.
For each compound, 50% growth inhibition (GI50) was calculated from Sigmoidal dose-response curves (variable-slope) that were generated with data obtained from experiments carried out in triplicates (GI50 values were generated with GraphPad Prism V. 6.02, GraphPad Software, Inc.). The results are presented in FIGS. 4A-4B (MCF-7 cancer cells) and FIGS. 5A-5B (MDA-MB-231 cancer cells).

[1] = test system: MDA-MB-231 breast cancer cells; assay: Wound healing assay (scratch method), cell migration; assay type: cell-based, human; details: Homo sapiens; percent relative migration at 10 μM after 24 h, relative to control, MDA-MB-231
Description: The experimental data of anti-migratory activities for compounds 3a-d and 4a-f were obtained using MDA-MB-231 breast cancer cells. For the migration assay, a wound-healing assay (scratch-wound assay) was utilized in the presence of vehicle (0.02% DMSO) or compounds at […].
Prior to assays, cells were grown until 80-90% confluence was observed. A 75 cm2 flask was used for 2.6×10^5 cells/mL in 10 mL and for a 25 cm2 flask 1.44×10^5 cells/mL in 5 mL. The cells were washed with PBS to remove all traces of FBS. 2 mL was added for a 25 cm2 flasks or 4 mL for a 75 cm2 flasks trypsin, and incubated 5-10 min at 37° C. At the end of the incubation time, cells were re-suspended and counted with hemocytometer using 1:2 dilutions with Trypan blue. Subsequently, cell viability was calculated. In a 12 multiwell plate, the plastic pattern was used to draw a fine space with a fine marker on the bottom of the plate. Cells were seeded at 1.5-2.2×10^5 cells/mL in 1 mL and incubated for 24 h. Cells were then rinsed with PBS and incubated in starving media (0.5% FBS) overnight. All controls and drugs were tested in triplicate. The negative control for each drug was prepared according to the drug's DMSO concentration.
Drugs were diluted and the final concentration at each well […]. The wound was made using a sterile pipette tip of […]. Cells were then rinsed very gently with media without FBS and media with negative controls was added. After a 24 h incubation, the gap distance was evaluated using the software Lumera Infinity Analyze 6.4.0. Pictures were taken at 0, 8, 12 and 24 h using a 10× objective. The percentage of migration was calculated using the following formula: 100−[(X0/X0)]*100 for time 0 h measurements 100−[(X24/X0)]*100 for time 24 h measurements
The experimental data of anti-migratory activities for compounds 3a-d and 4a-f were obtained using MDA-MB-231 breast cancer cells, and results are summarized in Table 1. For the migration assay, we used a wound-healing assay (scratch-wound assay)^22 in the presence of vehicle (0.02% DMSO) or compounds at 10 μM (FIG. 6). […] However, compounds 3a, 3c, and 4a-f inhibited migration in the range of 1-9%.
An additional example of a compounds with modification in building block C was synthesized via a different procedure as represented in Scheme 2B (see FIG. 11B). The compounds that were synthesized were tested for their biological activity by determination of their cytotoxicity in MDA-MB-231 breast cancer cell lines as shown in Table 5. The cytotoxicity's are expressed as IC50, which indicates the concentration at which 50% of the cell growth is inhibited. Furthermore, the inhibition of cell migration was tested at a concentration of 0.2×IC50, or, when the IC50 was >50 μM at a concentration of 10 μM. For comparison, Table 5 also includes the Lipinski and drug-likeness parameters as calculated via the MolSoft platform.
Migration assays were performed via the Scratch Method as described previously.

breast cancer cell = assay: Breast cancer cell viability (cell line not given); assay type: cell-based; details: breast cancer cells, at concentrations ≥1 μM

GI50 (MDA-MB-231 cancer cells; Homo sapiens, MDA-MB-231, SRB assay, 24 h treatment, mean of triplicate, SD <10%): > 50 µM
SMILES: CCn1c2ccccc2c2cc(C(=O)Nc3cccnc3N3CCOCC3)ccc21 [Compound 11b, 9-Ethyl-9H-carbazole-3-carboxylic Acid (2-morpholin-4-yl-pyridin-3-yl)-amide]
anti-proliferative activity / cytotoxicity in words (MDA-MB-231 cancer cells; MDA-MB-231, concentrations ≤50 μM): minimal cytotoxicity
activity at 10 µM [1]: 66 ± 7.43%
inhibition of breast cancer cell viability (breast cancer cell): 45%
